From patent publication US20230085307A1, “PYRIDAZINONE COMPOUND AND HERBICIDE” (NISSAN CHEMICAL CORPORATION, priority 2019, published 2023)

These compounds were tested on chickweed (assay: Test Example 5: herbicidal effect by foliage application, plastic box (Table 20, symbol P)). Conditions: foliage application, AAH 320 g/ha, evaluated three weeks after application.
Assay type: in vivo, common chickweed (Stellaria media)
Method in brief: (§1)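 Post-emergence foliar test in sterilized diluvial soil. Compound applied as water-diluted emulsion at a predetermined rate to 14-day-old plants; evaluation at three weeks.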

SMILES	P: chickweed, herbicidal effect (criteria 0-5)
Cc1nn(C)c(=O)c(-c2c(-c3ccc(OC(F)F)cc3)sc3ccc(F)cc23)c1OC(=S)Sc1ccccc1 [2-298]	5 (Herbicidal rate of 90% or more (almost completely withered))
Cc1nn(C)c(=O)c(-c2c(-c3ccc(OC(F)F)cc3)sc3ccc(F)cc23)c1OCC(=O)c1ccccc1 [2-305]	5 (Herbicidal rate of 90% or more (almost completely withered))

These compounds were tested on wild oat (assay: Test Example 4: herbicidal effect by soil treatment (Table 19, symbol I)). Conditions: amount of applied herbicide 320 g/ha.
Assay type: in vivo, wild oat (Avena fatua)
Method in brief: (§2)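 Scoring uses the grading scale of an earlier test, three weeks post-application. Treatment consists of spraying a diluted emulsion formulation across the surface of sterilized diluvial soil in which seeds are buried near 1.5 cm deep; boxes are kept in a greenhouse between 25° C. and 30° C.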

SMILES	herbicidal effect on I: wild oat
Cc1nn(C)c(=O)c(-c2c(-c3ccc(OC(F)F)cc3)sc3ccc(F)cc23)c1OC(=S)Sc1ccccc1 [2-298]	0 (Herbicidal rate of 5% or less (almost no effect))
Cc1nn(C)c(=O)c(-c2c(-c3ccc(OC(F)F)cc3)sc3ccc(F)cc23)c1OCC(=O)c1ccccc1 [2-305]	0 (Herbicidal rate of 5% or less (almost no effect))

The compounds below were run on persian speedwell (assay: Test Example 4: herbicidal effect by soil treatment (Table 19, symbol R)). Conditions: amount of applied herbicide 320 g/ha.
Assay type: in vivo, Persian speedwell (Veronica persica)
Method in brief: as §2

SMILES	herbicidal effect on R: persian speedwell
Cc1nn(C)c(=O)c(-c2c(-c3ccc(OC(F)F)cc3)sc3ccc(F)cc23)c1OC(=S)Sc1ccccc1 [2-298]	1 (Herbicidal rate of 5% or more and less than 20%)
Cc1nn(C)c(=O)c(-c2c(-c3ccc(OC(F)F)cc3)sc3ccc(F)cc23)c1OCC(=O)c1ccccc1 [2-305]	3 (Herbicidal rate of 40% or more and less than 70%)

What follows are compounds tested on southern crabgrass (assay: Test Example 4: herbicidal effect by soil treatment (Table 19, symbol F)). Conditions: amount of applied herbicide 320 g/ha.
Assay type: in vivo, southern crabgrass (Digitaria ciliaris)
Method in brief: as §2

SMILES	herbicidal effect on F: southern crabgrass
Cc1nn(C)c(=O)c(-c2c(-c3ccc(OC(F)F)cc3)sc3ccc(F)cc23)c1OC(=S)Sc1ccccc1 [2-298]	0 (Herbicidal rate of 5% or less (almost no effect))
Cc1nn(C)c(=O)c(-c2c(-c3ccc(OC(F)F)cc3)sc3ccc(F)cc23)c1OCC(=O)c1ccccc1 [2-305]	0 (Herbicidal rate of 5% or less (almost no effect))

Each compound was assayed on chickweed (assay: Test Example 4: herbicidal effect by soil treatment (Table 19, symbol P)). Conditions: amount of applied herbicide 320 g/ha.
Assay type: in vivo, common chickweed (Stellaria media)
Method in brief: as §2

SMILES	herbicidal effect on P: chickweed
Cc1nn(C)c(=O)c(-c2c(-c3ccc(OC(F)F)cc3)sc3ccc(F)cc23)c1OC(=S)Sc1ccccc1 [2-298]	0 (Herbicidal rate of 5% or less (almost no effect))
Cc1nn(C)c(=O)c(-c2c(-c3ccc(OC(F)F)cc3)sc3ccc(F)cc23)c1OCC(=O)c1ccccc1 [2-305]	1 (Herbicidal rate of 5% or more and less than 20%)

These compounds were tested on green foxtail (assay: Test Example 4: herbicidal effect by soil treatment (Table 19, symbol G)). Conditions: amount of applied herbicide 320 g/ha.
Assay type: in vivo, green foxtail (Setaria viridis)
Method in brief: as §2

SMILES	herbicidal effect on G: green foxtail
Cc1nn(C)c(=O)c(-c2c(-c3ccc(OC(F)F)cc3)sc3ccc(F)cc23)c1OC(=S)Sc1ccccc1 [2-298]	0 (Herbicidal rate of 5% or less (almost no effect))
Cc1nn(C)c(=O)c(-c2c(-c3ccc(OC(F)F)cc3)sc3ccc(F)cc23)c1OCC(=O)c1ccccc1 [2-305]	0 (Herbicidal rate of 5% or less (almost no effect))

Each compound was assayed on blackgrass (assay: Test Example 4: herbicidal effect by soil treatment (Table 19, symbol J)). Conditions: amount of applied herbicide 320 g/ha.
Assay type: in vivo, blackgrass (Alopecurus myosuroides)
Method in brief: as §2

SMILES	herbicidal effect on J: blackgrass
Cc1nn(C)c(=O)c(-c2c(-c3ccc(OC(F)F)cc3)sc3ccc(F)cc23)c1OC(=S)Sc1ccccc1 [2-298]	0 (Herbicidal rate of 5% or less (almost no effect))
Cc1nn(C)c(=O)c(-c2c(-c3ccc(OC(F)F)cc3)sc3ccc(F)cc23)c1OCC(=O)c1ccccc1 [2-305]	0 (Herbicidal rate of 5% or less (almost no effect))

These compounds were tested on velvetleaf (assay: Test Example 4: herbicidal effect by soil treatment (Table 19, symbol M)). Conditions: amount of applied herbicide 320 g/ha.
Assay type: in vivo, velvetleaf (Abutilon theophrasti)
Method in brief: as §2

SMILES	herbicidal effect on M: velvetleaf
Cc1nn(C)c(=O)c(-c2c(-c3ccc(OC(F)F)cc3)sc3ccc(F)cc23)c1OC(=S)Sc1ccccc1 [2-298]	2 (Herbicidal rate of 20% or more and less than 40%)
Cc1nn(C)c(=O)c(-c2c(-c3ccc(OC(F)F)cc3)sc3ccc(F)cc23)c1OCC(=O)c1ccccc1 [2-305]	1 (Herbicidal rate of 5% or more and less than 20%)

Each compound was assayed on velvetleaf (assay: Test Example 5: herbicidal effect by foliage application, plastic box (Table 20, symbol M)). Conditions: foliage application, AAH 320 g/ha, evaluated three weeks after application.
Assay type: in vivo, velvetleaf (Abutilon theophrasti)
Method in brief: as §1

SMILES	M: velvetleaf, herbicidal effect (criteria 0-5)
Cc1nn(C)c(=O)c(-c2c(-c3ccc(OC(F)F)cc3)sc3ccc(F)cc23)c1OC(=S)Sc1ccccc1 [2-298]	5 (Herbicidal rate of 90% or more (almost completely withered))
Cc1nn(C)c(=O)c(-c2c(-c3ccc(OC(F)F)cc3)sc3ccc(F)cc23)c1OCC(=O)c1ccccc1 [2-305]	5 (Herbicidal rate of 90% or more (almost completely withered))

Each compound was assayed on oval-leafed pondweed (assay: Test Example 1: herbicidal activity, application before weed generation under submerged conditions (Table 16, symbol C)). Conditions: 320 g/ha applied herbicide.
Assay type: in vivo, oval-leafed pondweed (Monochoria vaginalis)
Method in brief: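 Alluvial soil was flooded to 4 cm depth, weed seeds were sown mixed and 2.5-leaf rice seedlings were transplanted. On sowing day, the compound's emulsion, diluted in water to a set dose, was applied to the water surface. Plants grew at 25–30 °C and were scored 0–5 after three weeks.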

SMILES	Herbicidal effect on C: oval-leafed pondweed (grade 0-5)
Cc1nn(C)c(=O)c(-c2c(-c3ccc(OC(F)F)cc3)sc3ccc(F)cc23)c1OC(=S)Sc1ccccc1 [2-298]	3 (Herbicidal rate of 40% or more and less than 70%)
Cc1nn(C)c(=O)c(-c2c(-c3ccc(OC(F)F)cc3)sc3ccc(F)cc23)c1OCC(=O)c1ccccc1 [2-305]	2 (Herbicidal rate of 20% or more and less than 40%)

What follows are compounds tested on barnyard grass (assay: Test Example 4: herbicidal effect by soil treatment (Table 19, symbol H)). Conditions: amount of applied herbicide 320 g/ha.
Assay type: in vivo, barnyard grass (Echinochloa crus-galli)
Method in brief: as §2

SMILES	herbicidal effect on H: barnyard grass
Cc1nn(C)c(=O)c(-c2c(-c3ccc(OC(F)F)cc3)sc3ccc(F)cc23)c1OC(=S)Sc1ccccc1 [2-298]	0 (Herbicidal rate of 5% or less (almost no effect))
Cc1nn(C)c(=O)c(-c2c(-c3ccc(OC(F)F)cc3)sc3ccc(F)cc23)c1OCC(=O)c1ccccc1 [2-305]	0 (Herbicidal rate of 5% or less (almost no effect))

What follows are compounds tested on Japanese bulrush (assay: Test Example 2: herbicidal activity, application during weed generation under submerged conditions (Table 17, symbol B)). Conditions: AAH 320 g/ha; application during weed generation, submerged conditions.
Assay type: in vivo, Japanese bulrush (Schoenoplectus juncoides)
Method in brief: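 Effect on each weed is rated three weeks post-treatment, using the same scoring criteria as the preceding test. Plants grow from mixed-sown seed in flooded alluvial soil (4 cm water) at 25° C. to 30° C., and are treated at one to two leaves with diluted emulsion dropped onto the water.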

SMILES	herbicidal effect rating, B: Japanese bulrush
Cc1nn(C)c(=O)c(-c2c(-c3ccc(OC(F)F)cc3)sc3ccc(F)cc23)c1OC(=S)Sc1ccccc1 [2-298]	3 (Herbicidal rate of 40% or more and less than 70%)
Cc1nn(C)c(=O)c(-c2c(-c3ccc(OC(F)F)cc3)sc3ccc(F)cc23)c1OCC(=O)c1ccccc1 [2-305]	3 (Herbicidal rate of 40% or more and less than 70%)

What follows are compounds tested on windgrass (assay: Test Example 5: herbicidal effect by foliage application, plastic box (Table 20, symbol L)). Conditions: foliage application, AAH 320 g/ha, evaluated three weeks after application.
Assay type: in vivo, windgrass (Apera spica-venti)
Method in brief: as §1

SMILES	L: windgrass, herbicidal effect (criteria 0-5)
Cc1nn(C)c(=O)c(-c2c(-c3ccc(OC(F)F)cc3)sc3ccc(F)cc23)c1OC(=S)Sc1ccccc1 [2-298]	0 (Herbicidal rate of 5% or less (almost no effect))
Cc1nn(C)c(=O)c(-c2c(-c3ccc(OC(F)F)cc3)sc3ccc(F)cc23)c1OCC(=O)c1ccccc1 [2-305]	1 (Herbicidal rate of 5% or more and less than 20%)

What follows are compounds tested on lambsquarters (assay: Test Example 5: herbicidal effect by foliage application, plastic box (Table 20, symbol O)). Conditions: foliage application, AAH 320 g/ha, evaluated three weeks after application.
Assay type: in vivo, lambsquarters (Chenopodium album)
Method in brief: as §1

SMILES	O: lambsquarters, herbicidal effect (criteria 0-5)
Cc1nn(C)c(=O)c(-c2c(-c3ccc(OC(F)F)cc3)sc3ccc(F)cc23)c1OC(=S)Sc1ccccc1 [2-298]	5 (Herbicidal rate of 90% or more (almost completely withered))
Cc1nn(C)c(=O)c(-c2c(-c3ccc(OC(F)F)cc3)sc3ccc(F)cc23)c1OCC(=O)c1ccccc1 [2-305]	5 (Herbicidal rate of 90% or more (almost completely withered))

The compounds below were run on lambsquarters (assay: Test Example 4: herbicidal effect by soil treatment (Table 19, symbol O)). Conditions: amount of applied herbicide 320 g/ha.
Assay type: in vivo, lambsquarters (Chenopodium album)
Method in brief: as §2

SMILES	herbicidal effect on O: lambsquarters
Cc1nn(C)c(=O)c(-c2c(-c3ccc(OC(F)F)cc3)sc3ccc(F)cc23)c1OC(=S)Sc1ccccc1 [2-298]	3 (Herbicidal rate of 40% or more and less than 70%)
Cc1nn(C)c(=O)c(-c2c(-c3ccc(OC(F)F)cc3)sc3ccc(F)cc23)c1OCC(=O)c1ccccc1 [2-305]	3 (Herbicidal rate of 40% or more and less than 70%)

The compounds below were run on redroot pigweed (assay: Test Example 5: herbicidal effect by foliage application, plastic box (Table 20, symbol N)). Conditions: foliage application, AAH 320 g/ha, evaluated three weeks after application.
Assay type: in vivo, redroot pigweed (Amaranthus retroflexus)
Method in brief: as §1

SMILES	N: redroot pigweed, herbicidal effect (criteria 0-5)
Cc1nn(C)c(=O)c(-c2c(-c3ccc(OC(F)F)cc3)sc3ccc(F)cc23)c1OC(=S)Sc1ccccc1 [2-298]	5 (Herbicidal rate of 90% or more (almost completely withered))
Cc1nn(C)c(=O)c(-c2c(-c3ccc(OC(F)F)cc3)sc3ccc(F)cc23)c1OCC(=O)c1ccccc1 [2-305]	5 (Herbicidal rate of 90% or more (almost completely withered))

The compounds below were run on Italian ryegrass (assay: Test Example 5: herbicidal effect by foliage application, plastic box (Table 20, symbol K)). Conditions: foliage application, AAH 320 g/ha, evaluated three weeks after application.
Assay type: in vivo, Italian ryegrass (Lolium multiflorum)
Method in brief: as §1

SMILES	K: Italian ryegrass, herbicidal effect (criteria 0-5)
Cc1nn(C)c(=O)c(-c2c(-c3ccc(OC(F)F)cc3)sc3ccc(F)cc23)c1OC(=S)Sc1ccccc1 [2-298]	5 (Herbicidal rate of 90% or more (almost completely withered))
Cc1nn(C)c(=O)c(-c2c(-c3ccc(OC(F)F)cc3)sc3ccc(F)cc23)c1OCC(=O)c1ccccc1 [2-305]	4 (Herbicidal rate of 70% or more and less than 90%)
